Measured values reported in patent publication US8623907B2, “Herbicides” (Syngenta Participations, AG, priority 2008, dated 2014).

Legend:
Assay type in all cases: in vivo
[1] = system: Alopecurus myosuroides (ALOMY); experiment: Test Example 1, pre-emergence herbicidal activity; conditions: Rate 500 g/ha; evaluated 20 days later; 100=total damage to plant, 0=no damage to plant
Description: (§1) Monocotyledonous and dicotyledonous test plants were sown in standard soil in pots. After cultivation for one day (pre-emergence) or after 10 days cultivation (post-emergence) under controlled conditions in a glasshouse, the plants were sprayed with an aqueous spray solution derived from the formulation of the technical active ingredient in 0.6 ml acetone and 45 ml formulation solution containing 10.6% Emulsogen EL (Registry number 61791-12-6), 42.2% N-methylpyrrolidone, 42.2% dipropylene glycol monomethyl ether (Registry number 34590-94-8) and 0.2% X-77 (Registry number 11097-66-8). The test plants were then grown in a greenhouse under optimum conditions until, 15 days later for post-emergence and 20 days for pre-emergence, the test was evaluated (100=total damage to plant; 0=no damage to plant). Alopecurus myosuroides (ALOMY), Avena fatua (AVEFA), Lolium perenne (LOLPE), Setaria faberi (SETFA), Digitaria sanguinalis (DIGSA), Echinochloa crus-galli (ECHCG)

Avena fatua (AVEFA) [2] = experiment: Test Example 1, pre-emergence herbicidal activity; conditions: Rate 500 g/ha; evaluated 20 days later; 100=total damage to plant, 0=no damage to plant
Description: as §1

[3] = system: Digitaria sanguinalis (DIGSA); experiment: Test Example 1, pre-emergence herbicidal activity; conditions: Rate 500 g/ha; evaluated 20 days later; 100=total damage to plant, 0=no damage to plant
Description: as §1

[4] = system: Echinochloa crus-galli (ECHCG); experiment: Test Example 1, pre-emergence herbicidal activity; conditions: Rate 500 g/ha; evaluated 20 days later; 100=total damage to plant, 0=no damage to plant
Description: as §1

Lolium perenne (LOLPE) [5] = experiment: Test Example 1, pre-emergence herbicidal activity; conditions: Rate 500 g/ha; evaluated 20 days later; 100=total damage to plant, 0=no damage to plant
Description: as §1

Setaria faberi (SETFA) [6] = experiment: Test Example 1, pre-emergence herbicidal activity; conditions: Rate 500 g/ha; evaluated 20 days later; 100=total damage to plant, 0=no damage to plant
Description: as §1

[7] = system: Alopecurus myosuroides (ALOMY); experiment: Test Example 1, post-emergence herbicidal activity; conditions: Rate 500 g/ha; evaluated 15 days later; 100=total damage to plant, 0=no damage to plant
Description: as §1

Avena fatua (AVEFA) [8] = experiment: Test Example 1, post-emergence herbicidal activity; conditions: Rate 500 g/ha; evaluated 15 days later; 100=total damage to plant, 0=no damage to plant
Description: as §1

[9] = system: Digitaria sanguinalis (DIGSA); experiment: Test Example 1, post-emergence herbicidal activity; conditions: Rate 500 g/ha; evaluated 15 days later; 100=total damage to plant, 0=no damage to plant
Description: as §1

[10] = system: Echinochloa crus-galli (ECHCG); experiment: Test Example 1, post-emergence herbicidal activity; conditions: Rate 500 g/ha; evaluated 15 days later; 100=total damage to plant, 0=no damage to plant
Description: as §1

Lolium perenne (LOLPE) [11] = experiment: Test Example 1, post-emergence herbicidal activity; conditions: Rate 500 g/ha; evaluated 15 days later; 100=total damage to plant, 0=no damage to plant
Description: as §1

Setaria faberi (SETFA) [12] = experiment: Test Example 1, post-emergence herbicidal activity; conditions: Rate 500 g/ha; evaluated 15 days later; 100=total damage to plant, 0=no damage to plant
Description: as §1

[13] = system: Alopecurus myosuroides (ALOMY); experiment: Test Example B, pre-emergence herbicidal activity; conditions: Rate 250 g/ha; evaluated after 13 days; 100=total damage to plant, 0=no damage to plant
Description: (§2) Seeds of a variety of test species were sown in standard soil in pots. After cultivation for one day (pre-emergence) or after 8 days cultivation (post-emergence) under controlled conditions in a glasshouse (at 24/16° C., day/night; 14 hours light; 65% humidity), the plants were sprayed with an aqueous spray solution derived from the formulation of the technical active ingredient in acetone/water (50:50) solution containing 0.5% Tween 20 (polyoxyethelyene sorbitan monolaurate, CAS RN 9005-64-5). The test plants were then grown in a glasshouse under controlled conditions in a glasshouse (at 24/16° C., day/night; 14 hours light; 65% humidity) and watered twice daily. After 13 days for pre and post-emergence, the test was evaluated (100=total damage to plant; 0=no damage to plant). Alopecurus myosuroides (ALOMY), Avena fatua (AVEFA), Setaria faberi (SETFA), Echinochloa crus-galli (ECHCG), Solanum nigrum (SOLNI) and Amaranthus retroflexus (AMARE)

[14] = system: Amaranthus retroflexus (AMARE); experiment: Test Example B, pre-emergence herbicidal activity; conditions: Rate 250 g/ha; evaluated after 13 days; 100=total damage to plant, 0=no damage to plant
Description: as §2

Avena fatua (AVEFA) [15] = experiment: Test Example B, pre-emergence herbicidal activity; conditions: Rate 250 g/ha; evaluated after 13 days; 100=total damage to plant, 0=no damage to plant
Description: as §2

[16] = system: Echinochloa crus-galli (ECHCG); experiment: Test Example B, pre-emergence herbicidal activity; conditions: Rate 250 g/ha; evaluated after 13 days; 100=total damage to plant, 0=no damage to plant
Description: as §2

Setaria faberi (SETFA) [17] = experiment: Test Example B, pre-emergence herbicidal activity; conditions: Rate 250 g/ha; evaluated after 13 days; 100=total damage to plant, 0=no damage to plant
Description: as §2

Solanum nigrum (SOLNI) [18] = experiment: Test Example B, pre-emergence herbicidal activity; conditions: Rate 250 g/ha; evaluated after 13 days; 100=total damage to plant, 0=no damage to plant
Description: as §2

[19] = system: Alopecurus myosuroides (ALOMY); experiment: Test Example B, post-emergence herbicidal activity; conditions: Rate 250 g/ha; evaluated after 13 days; 100=total damage to plant, 0=no damage to plant
Description: as §2

[20] = system: Amaranthus retroflexus (AMARE); experiment: Test Example B, post-emergence herbicidal activity; conditions: Rate 250 g/ha; evaluated after 13 days; 100=total damage to plant, 0=no damage to plant
Description: as §2

Avena fatua (AVEFA) [21] = experiment: Test Example B, post-emergence herbicidal activity; conditions: Rate 250 g/ha; evaluated after 13 days; 100=total damage to plant, 0=no damage to plant
Description: as §2

[22] = system: Echinochloa crus-galli (ECHCG); experiment: Test Example B, post-emergence herbicidal activity; conditions: Rate 250 g/ha; evaluated after 13 days; 100=total damage to plant, 0=no damage to plant
Description: as §2

Setaria faberi (SETFA) [23] = experiment: Test Example B, post-emergence herbicidal activity; conditions: Rate 250 g/ha; evaluated after 13 days; 100=total damage to plant, 0=no damage to plant
Description: as §2

Solanum nigrum (SOLNI) [24] = experiment: Test Example B, post-emergence herbicidal activity; conditions: Rate 250 g/ha; evaluated after 13 days; 100=total damage to plant, 0=no damage to plant
Description: as §2

CCc1ccc(-c2ccc(Cl)cc2Cl)cc1C1([N+](=O)[O-])C(=O)C(C)(C)OC(C)(C)C1=O [Compound A1, 4-(2′,4′-dichloro-4-ethylbiphen-3-yl)-2,2,6,6-tetramethyl-4-nitropyran-3,5-dione]
Pre-Emergence Activity ALOMY (damage to plant) [1]: 20 | Pre-Emergence Activity AVEFA (damage to plant) (Avena fatua (AVEFA) [2]): 30 | Pre-Emergence Activity DIGSA (damage to plant) [3]: 70 | Pre-Emergence Activity ECHCG (damage to plant) [4]: 20 | Pre-Emergence Activity LOLPE (damage to plant) (Lolium perenne (LOLPE) [5]): 30 | Pre-Emergence Activity SETFA (damage to plant) (Setaria faberi (SETFA) [6]): 0 | Post-Emergence Activity ALOMY (damage to plant) [7]: 60 | Post-Emergence Activity AVEFA (damage to plant) (Avena fatua (AVEFA) [8]): 70 | Post-Emergence Activity DIGSA (damage to plant) [9]: 100 | Post-Emergence Activity ECHCG (damage to plant) [10]: 100 | Post-Emergence Activity LOLPE (damage to plant) (Lolium perenne (LOLPE) [11]): 100 | Post-Emergence Activity SETFA (damage to plant) (Setaria faberi (SETFA) [12]): 100

CCc1ccc(-c2ccc(Cl)cc2Cl)cc1C1(Cl)C(=O)C(C)(C)OC(C)(C)C1=O [Compound A2, 4-chloro-4-(2′,4′-dichloro-4-ethylbiphen-3-yl)-2,2,6,6-tetramethylpyran-3,5-dione]
Pre-Emergence Activity ALOMY (damage to plant) [1]: 0 | Pre-Emergence Activity AVEFA (damage to plant) (Avena fatua (AVEFA) [2]): 50 | Pre-Emergence Activity DIGSA (damage to plant) [3]: 90 | Pre-Emergence Activity ECHCG (damage to plant) [4]: 90 | Pre-Emergence Activity LOLPE (damage to plant) (Lolium perenne (LOLPE) [5]): 70 | Pre-Emergence Activity SETFA (damage to plant) (Setaria faberi (SETFA) [6]): 90 | Post-Emergence Activity ALOMY (damage to plant) [7]: 60 | Post-Emergence Activity AVEFA (damage to plant) (Avena fatua (AVEFA) [8]): 80 | Post-Emergence Activity DIGSA (damage to plant) [9]: 100 | Post-Emergence Activity ECHCG (damage to plant) [10]: 100 | Post-Emergence Activity LOLPE (damage to plant) (Lolium perenne (LOLPE) [11]): 100 | Post-Emergence Activity SETFA (damage to plant) (Setaria faberi (SETFA) [12]): 100

Cc1ccc(-c2ccc(Cl)cc2)cc1C1(Cl)C(=O)COC(C)(C)C1=O (stereo not drawn) [Compound A3, 4-chloro-4-(4′-chloro-4-methylbiphenyl-3-yl)-2,2-dimethylpyran-3,5-dione]
Pre-Emergence Activity ALOMY (damage to plant) [13]: 0 | Pre-Emergence Activity AMARE (damage to plant) [14]: 0 | Pre-Emergence Activity AVEFA (damage to plant) (Avena fatua (AVEFA) [15]): 0 | Pre-Emergence Activity ECHCG (damage to plant) [16]: 50 | Pre-Emergence Activity SETFA (damage to plant) (Setaria faberi (SETFA) [17]): 0 | Pre-Emergence Activity SOLNI (damage to plant) (Solanum nigrum (SOLNI) [18]): 0 | Post-Emergence Activity ALOMY (damage to plant) [19]: 0 | Post-Emergence Activity AMARE (damage to plant) [20]: 0 | Post-Emergence Activity AVEFA (damage to plant) (Avena fatua (AVEFA) [21]): 0 | Post-Emergence Activity ECHCG (damage to plant) [22]: 80 | Post-Emergence Activity SETFA (damage to plant) (Setaria faberi (SETFA) [23]): 80 | Post-Emergence Activity SOLNI (damage to plant) (Solanum nigrum (SOLNI) [24]): 0

Cc1ccc(-c2ccc(Cl)cc2)cc1C1(Cl)C(=O)C(C)(C)OC(C)(C)C1=O [Compound A4, 4-Chloro-4-(4′-chloro-4-methylbiphenyl-3-yl)-2,2,6,6-tetramethyl-pyran-3,5-dione]
Pre-Emergence Activity ALOMY (damage to plant) [13]: 30 | Pre-Emergence Activity AMARE (damage to plant) [14]: 0 | Pre-Emergence Activity AVEFA (damage to plant) (Avena fatua (AVEFA) [15]): 70 | Pre-Emergence Activity ECHCG (damage to plant) [16]: 100 | Pre-Emergence Activity SETFA (damage to plant) (Setaria faberi (SETFA) [17]): 100 | Pre-Emergence Activity SOLNI (damage to plant) (Solanum nigrum (SOLNI) [18]): 0 | Post-Emergence Activity ALOMY (damage to plant) [19]: 100 | Post-Emergence Activity AMARE (damage to plant) [20]: 0 | Post-Emergence Activity AVEFA (damage to plant) (Avena fatua (AVEFA) [21]): 90 | Post-Emergence Activity ECHCG (damage to plant) [22]: 100 | Post-Emergence Activity SETFA (damage to plant) (Setaria faberi (SETFA) [23]): 100 | Post-Emergence Activity SOLNI (damage to plant) (Solanum nigrum (SOLNI) [24]): 0
